Tested on: LPS-primed monocytes
Test: Surface molecule expression on LPS-primed human monocytes (flow cytometry)
Type: cell-based
Details: LPS 100 ng/ml, 18 hr, 10 μM compound vs DMSO control; flow cytometry MFI
Procedure: Human monocytes were stimulated with LPS (100 ng/ml) in the presence of either an isotype control IgG, or anti-CD11b antibody (ICRF44) for 18 hr. The cells were harvested and HLA-DR, PD-L1, CD80 and CD86 molecules were analyzed using flow cytometry. Surface molecule expression is presented as the MFI. Values are presented as the mean±SEM from 3 independent experiments.
FIGS. 2 A and B show the effect of cell adhesion to fibrinogen and reduction of PD-L1 expression by binding CD11b, respectively. […] 25000 of K562/CD11b cells adhered to the bottom of fibrinogen (20 μg/ml)-coated wells in the presence of 10 μM ML-C19-A or DMSO at 37° C. for 20 min. The results were quantitated by luciferase-based CellTiter-Glo (Promega CO.). Each bar represents mean±SEM of triplicate determinations from a representative experiment. […] Human monocytes were stimulated with LPS (100 ng/ml) in the presence of either DMSO control or 10 μM of ML-C19-A for 18 hr. The cells were harvested and PD-L1 molecules were analyzed using flow cytometry. Surface molecule expression is presented as the MFI. Values are presented as the mean±SEM from 10 independent experiments.
Primed-monocytes were incubated in the presence of either an isotype control IgG, anti-CD11b antibody (ICRF44) or humanized anti-CD11b antibodies for 18 hr. The cells were harvested and PD-L1 expression on monocytes was analyzed using flow cytometry. […]

## NS(=O)(=O)c1ccc(N2C(=O)c3cccc4cccc(c34)C2=O)cc1 [ML-C19-A]
  PD-L1 expression in LPS-primed monocytes: inhibitory

Source: patent publication US11685785B2, “Methods and antibodies for modulation of immunoresponse” (Ascendo Biotechnology, Inc., priority 2015, dated 2023)
